# Laboratory results published in paper PMC10610289, “Novel Baicalein-Derived Inhibitors of Plasmodium falciparum” (Pathogens, 2023).
# Read-outs that look alike come from different tables or passages of the source.
# How the values were obtained:
# [1] = tested on: Dd2 DDD107498 (PfeEF2 Y186N); experiment: Cross-resistance panel, Dd2 DDD107498; assay type: cell-based, Plasmodium falciparum
# Protocol: (§1) Parasite lines used in the study were P. falciparum 3D7 (Pf3D7 Chloroquine-sensitive) and Plasmodium falciparum K1 (PfK1 Chloroquine-resistant) sourced from the Malaria Research and Reference Reagent Resource Center (MR4), ATCC, Manassas, VA, USA. FNDR-10132 was tested against a cross-resistance panel at Swiss TPH, Allschwil, Switzerland.
# Dd2 (wt) = experiment: Cross-resistance panel, Dd2 wt; assay type: cell-based, Plasmodium falciparum; conditions: strain Dd2 wt
# Protocol: as §1
# Dd2 DSM265 (Pfdhodh) = experiment: Cross-resistance panel, Dd2 DSM265; assay type: cell-based, Plasmodium falciparum
# Protocol: as §1
# [2] = tested on: Dd2 ELQ300 (PfcytB Ile22Leu); experiment: Cross-resistance panel, Dd2 ELQ300; assay type: cell-based, Plasmodium falciparum
# Protocol: as §1
# [3] = tested on: Plasmodium falciparum 3D7 (chloroquine-sensitive); experiment: Antimalarial assay (IC50 determination), asexual blood stage, SYBR green; assay type: cell-based; conditions: for antimalarial activity (in words): P. falciparum 3D7, highest tested concentration 25 µM; for IC50: P. falciparum 3D7, 72 h exposure, read-out: IC50
# Protocol: as §1
# As per the modified protocol stated by Trager and Jensen, 1976, Plasmodium falciparum parasite lines (Pf3D7 and PfK1) were cultured. Plasmodium strains were maintained in RPMI-1640 medium at 3–5% hematocrit supplemented with 0.2% w/v glucose, 0.5% w/v AlbuMaxII, 0.2% w/v NaHCO3, and 30 μg/mL gentamycin, and, additionally, 15 μM hypoxanthine was added and incubated at 37 °C with 5% O2, 5% CO2, and 90% N2. After 24 h, the medium was changed. After attaining high parasitemia (6–8% mature stage parasite), the culture was sub-passaged with fresh human RBCs.
# All tested compounds were dissolved in a DMSO solvent and a prepared stock solution of 10 mM. The reference drug, Chloroquine diphosphate, was dissolved in CRPMI. Working solutions were made from stock solution after diluting in a CRPMI medium during the experiment. The maximum concentration of DMSO used in this study was <1%. It had no parasiticidal effect.
# The P. falciparum (0.8–1% parasitemia and 1% hematocrit) synchronous culture was exposed for 72 h (at 37 °C, 5% O2, 5% CO2, and 90% N2) to the serially diluted compound in 96-well plates. A total of 100 µL of RBCs lytic buffer (5 mM EDTA, 20 mM Tris pH 7.5, 0.08% Triton X-100, and 0.008% Saponin) containing the SYBR green 1-X final concentration was distributed to each well and incubated for one hour at room temp in the dark. The plates were read under a fluorescence reader at an excitation of 485 ± 20 nm and emission of 535 ± 25 nm. The IC50 values were calculated based on the DNA content of the parasite relative to its control. An inhibitory concentration of 50% (IC50) was determined using the MS-EXEL template.
# [4] = Microsomal stability assay; assay type: in vitro ADME, mouse; conditions: at 60 min, 1 µM, ß-NADPH, 37 °C
# Protocol: Dipotassium hydrogen phosphate, Potassium dihydrogen phosphate, and formic acid were obtained from Merck, Rahway, NJ, USA. Methanol–acetonitrile was procured from Biosolve Chimie, Dieuze, France. Mouse liver microsomes, 20 mg/mL, were received from a third-party vendor in India. Imipramine HCl (catalog no. I0971) and Carbamazepine (catalog no. O0363) were procured from TCI, Gurugram, India. ß-NADPH (product code-99197) was procured from Sisco Research Laboratories, Mumbai, India.
# The in vitro metabolic stability was determined in mouse liver microsomes. To prepare a mouse liver microsomes (MLM) homogenate, 100 µL of microsomes was resuspended in 100 mM phosphate buffer (0.607 g K2HPO4 and 0.212 g KH2PO4 dissolved in 50 mL of de-ionized water), achieving a working concentration of 0.625 mg/mL. Positive control (Imipramine) and test compounds (FNDR-10132, 10136, 10139, and 10999) were spiked individually into the MLM homogenate at a final concentration of 1 µm. To pre-incubate, they were placed in a water bath at 37 °C for 5 min. At least 30 µL was collected in triplicates (0 min samples), and the reaction was quenched using 90 µL of acetonitrile, which contained 500 ng/mL of Carbamazepine as an internal standard. Nicotinamide Adenine Dinucleotide Phosphate (NADPH) in phosphate buffer was added to the remaining MLM at a 1 mM final concentration and further incubated at 37 °C. At the indicated time intervals, 30 µL aliquots were sampled in triplicates, and the reaction was quenched with acetonitrile containing Carbamazepine as the internal standard. The samples were centrifugated for 10 min at 13,000 rpm, and the supernatant was separated for further analysis.
# The analytical method for microsomal stability and protein binding assay is as follows: Chromatographic elution was achieved following isocratic flow on an X-Terra MS C18 50 × 4.6 mm, 2.5 µm, Waters, USA, maintained at 40 °C. The mobile phase contained aqueous 0.1% formic acid in water in solvent A and acetonitrile acidified with 0.1% formic acid in solvent B delivered at 0.300 mL/min. The flow was 15% from solvent A and 85% from solvent B for 4.5 min. A total of 7 μL of the sample was injected for the assay. […] Detection was performed through multiple reaction monitoring (MRM). The ion transitions are as follows: Imipramine, FNDR-10132, FNDR-10136, FNDR-10139, FNDR-10999, and IS at m/z 281.1→86.0, 355.2→115.1, 354.0→298.0, 350.0→186.1, 349→305.2, and m/z 237.0→194.0, respectively. An optimized cone voltage and collision energy were used to ionize the compounds. The MS parameters follow as follows: cone gas flow 50 (L/h); ion source temperature 150 °C; desolvation gas flow 900 (L/h); desolvation temperature 400 °C; and collision gas flow 0.10 (mL/min).
# [5] = tested on: Dd2 GNF156 (Pfcarl Ile1139Lys); experiment: Cross-resistance panel, Dd2 GNF156; assay type: cell-based, Plasmodium falciparum
# Protocol: as §1
# [6] = tested on: Dd2 390048 (Pfpi4k S743T); experiment: Cross-resistance panel, Dd2 390048; assay type: cell-based, Plasmodium falciparum
# Protocol: as §1
# [7] = Plasmodium falciparum, 3D7, 72 h
structure (smiles),measurement,setting,value
"O=C(NCCN1CCCC1)c1cc(-c2ccc(CN3CCOCC3)cc2)nc2ccc(F)cc12 [DDD107498, reference compound]",IC50,"[1]; Plasmodium falciparum, DD2",1860 nM
same,Fold shift IC50 rel. Dd2,[1]; strain Dd2 DDD107498,7247
same,IC50,Dd2 (wt); Plasmodium falciparum,0.257 nM
same,Fold shift IC50 rel. Dd2,Dd2 (wt),1.0
"Cc1cc(Nc2ccc(S(F)(F)(F)(F)F)cc2)n2nc(C(C)(F)F)nc2n1 [DSM265, reference compound]",IC50,Dd2 DSM265 (Pfdhodh); Plasmodium falciparum,150 nM
same,Fold shift IC50 rel. Dd2,Dd2 DSM265 (Pfdhodh); strain Dd2 DSM265,24
same,IC50,Dd2 (wt); Plasmodium falciparum,6.23 nM
same,Fold shift IC50 rel. Dd2,Dd2 (wt),1.0
"COc1cc2[nH]c(C)c(-c3ccc(Oc4ccc(OC(F)(F)F)cc4)cc3)c(=O)c2cc1Cl [ELQ300, reference compound]",Fold shift IC50 rel. Dd2,[2]; strain Dd2 ELQ300,9.7
same,IC50,"[2]; strain Dd2 ELQ300, PfcytB Ile22Leu, read-out: IC50",59.7 nM
same,Fold shift IC50 rel. Dd2,Dd2 (wt),1.0
same,IC50,Dd2 (wt),6.14 nM
O=C(O)c1ccc2oc(-c3ccccc3)cc(=O)c2c1 [FNDR-10130],antimalarial activity (in words),[3],no activity
same,IC50,[3]; [7],> 25000 nM
O=c1cc(-c2ccc(-c3ccccc3)cc2)oc2cc(O)c(O)c(O)c12 [FNDR-10131],IC50,[3]; [7],220 nM
O=c1cc(-c2ccc(N3CCOCC3)cc2)oc2cc(O)c(O)c(O)c12 [FNDR-10133],IC50,[3]; [7],1290 nM
O=c1cc(-c2ccc(N3CCCCC3)cc2)oc2cc(O)c(O)c(O)c12 [FNDR-10136],IC50,[3]; [7],100 nM
same,Microsomal Stability (Mouse),[4],~19.05 ± 1.26%
O=C(O)c1ccc2oc(-c3ccc(-c4ccccc4)cc3)cc(=O)c2c1 [FNDR-10137],IC50,[3]; [7],13200 nM
O=C(O)c1ccc2oc(-c3ccc(N4CCOCC4)cc3)cc(=O)c2c1 [FNDR-10138],IC50,[3]; [7],9650 nM
O=C(O)c1ccc2oc(-c3ccc(N4CCCCC4)cc3)cc(=O)c2c1 [FNDR-10139],IC50,[3]; [7],4060 nM
same,Microsomal Stability (Mouse),[4],~29.92 ± 5.46%
CCCCCCCCCCCc1cc(=O)c2c(O)c(O)c(O)cc2o1 [FNDR-10142],IC50,[3]; [7],400 nM
O=C(CCCc1ccccc1)NCc1cc(=O)c2c(O)c(O)c(O)cc2o1 [FNDR-10143],IC50,[3]; [7],2480 nM
COc1cccc(CCC(=O)NCc2cc(=O)c3c(O)c(O)c(O)cc3o2)c1 [FNDR-10146],IC50,[3]; [7],2930 nM
CCCCOc1ccc(C(=O)NCc2cc(=O)c3c(O)c(O)c(O)cc3o2)cc1 [FNDR-10148],IC50,[3],920 nM
same,IC50,[3]; [7],900 nM
O=C(CCCCCc1ccccc1)NCc1cc(=O)c2c(O)c(O)c(O)cc2o1 [FNDR-10149],IC50,[3]; [7],2740 nM
O=C(NCc1cc(=O)c2c(O)c(O)c(O)cc2o1)c1ccc2ccc(Br)cc2c1 [FNDR-10150],IC50,[3]; [7],1120 nM
O=C(O)c1ccc2oc(-c3ccc(C4CCCCC4)cc3)cc(=O)c2c1 [FNDR-10999],IC50,[3],10100 nM
same,IC50,[3]; [7],~10000 nM
same,Microsomal Stability (Mouse),[4],~32.19 ± 0.29%
CCCCOc1ccc(-c2cc(=O)c3cc(C(=O)O)ccc3o2)cc1 [FNDR-11000],antimalarial activity (in words),[3],none of the compounds were active
same,IC50,[3]; [7],> 25000 nM
CCN(CC)c1ccc(-c2cc(=O)c3cc(C(=O)O)ccc3o2)cc1 [FNDR-11001],IC50,[3],10200 nM
same,IC50,[3]; [7],~10000 nM
O=C(O)c1ccc2c(=O)cc(-c3ccc(N4CCCCC4)cc3)oc2c1 [FNDR-11003],antimalarial activity (in words),[3],inactive
same,IC50,[3]; [7],> 25000 nM
CCCCCCc1ccc(-c2cc(=O)c3cc(C(=O)O)ccc3o2)cc1 [FNDR-11009],IC50,[3]; [7],10400 nM
O=C(O)c1ccc2c(=O)cc(-c3ccc(C4CCCCC4)cc3)oc2c1 [FNDR-11012],antimalarial activity (in words),[3],inactive
same,IC50,[3]; [7],> 25000 nM
CCCCOc1ccc(-c2cc(=O)c3ccc(C(=O)O)cc3o2)cc1 [FNDR-11013],antimalarial activity (in words),[3],inactive
same,IC50,[3]; [7],> 25000 nM
CCN(CC)c1ccc(-c2cc(=O)c3ccc(C(=O)O)cc3o2)cc1 [FNDR-11014],antimalarial activity (in words),[3],inactive
same,IC50,[3]; [7],> 25000 nM
CS(=O)(=O)CCCOc1ccc(-c2cc(=O)c3cc(C(=O)O)ccc3o2)cc1 [FNDR-11096],antimalarial activity (in words),[3],none of the compounds were active
same,IC50,[3]; [7],> 25000 nM
"CC1(C)c2nc(-c3ccc(F)cc3)c(Nc3ccc(F)cc3)n2CCN1C(=O)CN [GNF156, reference compound]",IC50,"[5]; Plasmodium falciparum, DD2",2160 nM
same,Fold shift IC50 rel. Dd2,[5]; strain Dd2 GNF156,237
same,IC50,Dd2 (wt); Plasmodium falciparum,9.12 nM
same,Fold shift IC50 rel. Dd2,Dd2 (wt),1.0
"CS(=O)(=O)c1ccc(-c2cnc(N)c(-c3ccc(C(F)(F)F)nc3)c2)cc1 [MMV390048, reference compound]",IC50,Dd2 (wt); Plasmodium falciparum,18.5 nM
same,Fold shift IC50 rel. Dd2,Dd2 (wt),1.0
same,IC50,"[6]; Plasmodium falciparum, DD2",90.8 nM
same,Fold shift IC50 rel. Dd2,[6]; strain Dd2 390048,4.9
O=c1cc(-c2ccccc2)oc2cc(O)c(O)c(O)c12 [baicalein],IC50,[3]; [7],32000 nM
